Consider 13 molecules from US4189426A, “Recombinant hormonal compositions and method” (Hoffmann-La Roche, Inc., priority 1978, dated 1980).

Where two headings read alike, the source gives them in different places. Starred links: 1 amine or outer side, 2 acyl side, 3 side chain; linkers in the order of their positions; H or OH if unused. Non-standard residues stand in square brackets, D forms with d. No end group written: not given here. Cys(Cam) = carboxamidomethylated cysteine, NC(=O)CSC[C@H](N[*:1])C(=O)[*:2]

One assay concerns antisera to HCS. Briefly: gel double-diffusion technique of Ouchterlony. Format: binding, rabbit. The settings on record: HCS 10 μg, small fragment 40 μg. The protocol:
(§1) Amino acid compositions of acid and carboxypeptidase hydrolysates were determined in an automatic amino acid analyzer (model 120B, Beckman Instruments). For the analysis of tryptophan, the methanesulfonic acid hydrolysates were used. Amino-terminal residue and sequence analyses were preformed by the dansyl-Edman procedure. Isoelectric focusing was carried out in 8 M urea. Prolactin activity was estimated by the pigeon crop-sac assay. Microcomplement fixation experiments were performed with rabbit antisera to HCS. The gel-double-diffusion technique of Ouchterlony was done using 1% agar in 0.01 M phosphate buffer of pH 7.5.

The next assay concerns pigeon crop-sac. Briefly: local crop-sac assay in the pigeon (prolactin / lactogenic activity). Format: in vivo. The settings on record: for Dry mucosal weight: Table 4, pigeon crop-sac test; for Dry mucosal weight / Pigeon crop-sac assay Response (dry mucosal weight): mean ± standard error; for Pigeon crop-sac assay Response (dry mucosal weight): Table 1, four birds. On the procedure:
The growth-promoting activity of PL-HGH, the unpurified recombinant of Example 1 (fraction IV), [Cys(Cam)^53 -HGH-(1-134)], [Cys(Cam)^165, 182, 189 -HGH-(141-191)] and saline control were determined by the rat tibia test of Greenspan et al, Endocrinology 45, 455 (1949) and by the local crop-sac assay in the pigeon according to Lyons, Proc. Soc. Exp. Biol. 35, 645 (1937) and Nicoll, Endocrinology 80, 641 (1967). Amino acid compositions of acid and carboxypeptidase hydrolysates were determined in an automatic amino acid analyzer (model 120B, Beckman Instruments). For the analysis of tryptophan, the methanesulfonic acid hydrolysates were used. Amino-terminal residue and sequence analyses were preformed by the dansyl-Edman procedure. Isoelectric focusing was carried out in 8 M urea. Prolactin activity was estimated by the pigeon crop-sac assay. Microcomplement fixation experiments were performed with rabbit antisera to HCS. The gel-double-diffusion technique of Ouchterlony was done using 1% agar in 0.01 M phosphate buffer of pH 7.5. Exclusion chromatography of the purified fragments or the recombinant was performed on a Sephadex G-100 column (1.5×60 cm; V0 =35 ml) in 10 mM NH4 HCO3 (pH 8.4) at 21°. Circular dichroism (CD) spectra were obtained by a spectropolarimeter (Cary model 60) equipped with a circular dichroism attachment (model 6002). Microcomplement fixation was performed with the guinea pig antiserum to ovine prolactin. The gel double-diffusion technique of Ouchterlony was carried out with 1% agar in 10 mM phosphate buffer (pH 7.5). The prolactin activity was estimated by the local crop-sac assay in the pigeon.

For a further assay, the system named is rabbit antisera to HCS. Briefly: microcomplement fixation. The format is binding. The conditions noted are these: antiserum to HCS at a dilution of 1:5500; HCS at 10 ng. The protocol: as §1
The test system of the next assay is rat tibia. Briefly: rat tibia test (growth-promoting activity). Format: in vivo. The settings on record: for Response (tibia width): mean ± SEM; for Response (tibia width) / Rat tibia assay Response (tibia width): four animals; for Rat tibia assay Response (tibia width): Table 1, mean ± standard error; for growth-promoting activity, result in words: rat tibia test; for Response (rat tibia test): Table 7, total dose of 600 μg in 4 days, means ± S.E., four test animals; for Relative potency to HGH: Tables 5 and 8. The protocol:
The growth-promoting activity of PL-HGH, the unpurified recombinant of Example 1 (fraction IV), [Cys(Cam)^53 -HGH-(1-134)], [Cys(Cam)^165, 182, 189 -HGH-(141-191)] and saline control were determined by the rat tibia test of Greenspan et al, Endocrinology 45, 455 (1949) and by the local crop-sac assay in the pigeon according to Lyons, Proc. Soc. Exp. Biol. 35, 645 (1937) and Nicoll, Endocrinology 80, 641 (1967).
(§2) Plasmin fragments of reduced-carboxamidomethylation HGH and HCS were obtained as described above. Exclusion chromatography of the reaction mixture was performed at 22° C. on a Sephadex G-100 column (1.5×60 cm) in 0.01 M NH4 HCO3 of pH 8.4. For radioimmunoassay, the double-antibody procedure using a guinea pig antiserum to native HGH was performed. The growth-promoting activity was determined by the rat tibia test.

Assay [1] relates to guinea pig antiserum to native HGH. The assay can be described thus: radioimmunoassay, double-antibody procedure. The format is binding. On the procedure:
as §2

As for Cys (Cam)^53 -HCS-(1-133) [N], the precipitin reaction result in the assay on antisera to HCS is “weak precipitin line which showed non-identity with the native hormone”. Further, the Dry mucosal weight in the assay on pigeon crop-sac (total dose 40 (mg)) came out at 11.2 ± 0.7 mg; with pigeon crop-sac (total dose 120 (mg)), 12.0 ± 0.9 mg. Besides, in the assay with pigeon crop-sac (pigeon crop-sac assay), the “prolactin (lactogenic) activity, result in words” value (“prolactin (lactogenic) activity” below) was “may have low activity but is much less than the native hormone”. In addition, the complement fixed result in the assay on rabbit antisera to HCS was “less than 10%”. Also, the “Response (tibia width)” value in the assay on rat tibia (Table 5, total dose 300 μg) is 185.5 ± 1.7 micrometers.

On to “Cys(Cam)^53 -HGH-(1-134) [reference compound]”, for which the “radioimmunoassay inhibition / cross-reaction compared with HGH, in words” value in assay [1] is reported as “only a slight cross-reaction”. Also, the “Pigeon crop-sac assay Response (dry mucosal weight)” value with pigeon crop-sac (total dose 0.65 nmol) is 9.6 ± 1.8 mg; with pigeon crop-sac (total dose 1.95 nmol) it was 12.4 ± 2.7 mg. Further, the “prolactin (lactogenic) activity” value with pigeon crop-sac (pigeon crop-sac assay) is reported as “only a very small fraction of the comparative biological activities of the native human growth hormone”. Also, the “Relative potency to PLHGH” value with pigeon crop-sac (pigeon crop-sac assay, Tables 1 and 2) is recorded as “less than 1%”; in the assay with rat tibia (rat tibia assay, Tables 1 and 2), 8%. Moreover, the entries for the “Rat tibia assay Response (tibia width)” value in the assay with rat tibia (total dose 3.26 nmol) and in the assay with rat tibia (total dose 9.78 nmol) were 207.2 ± 1.5 micra and 235.5 ± 1.5 micra, respectively. Further, the “Response (tibia width)” value in the assay with rat tibia (Table 5, total dose 150 μg) amounted to 231.2 ± 1.6 micrometers; in the assay on rat tibia (Table 5, total dose 450 μg), 275.0 ± 3.8 micrometers. The “growth-promoting activity, result in words” value (“growth-promoting activity” for short) in the assay on rat tibia is listed as “only a very small fraction of the comparative biological activities of the native human growth hormone”.

“Cys(Cam)^165,182,189 -HGH-(141-191) (QTYSKFDTNSHNDDALLKNYGLLY[Cys(Cam)]FRKDMDKVETFLRIVQ[Cys(Cam)]RSVEGS[Cys(Cam)]GF; UniProt P01241 167-217, looked up, fragment) [COOH-terminal plasmin fragment of reduced-carboxamidomethylated HGH, reference compound]”: the “Pigeon crop-sac assay Response (dry mucosal weight)” value in the assay with pigeon crop-sac (total dose 20.3 nmol) is listed as 13.4 ± 1.2 mg. Further, the “prolactin (lactogenic) activity” value with pigeon crop-sac (pigeon crop-sac assay) was “only a very small fraction of the comparative biological activities of the native human growth hormone”. Besides, the “Rat tibia assay Response (tibia width)” value in the assay with rat tibia (total dose 9.78 nmol) is 186.7 ± 4.4 micra. Further, the “Response (rat tibia test)” value in the assay on rat tibia was 212 ± 7.3 microns. The “growth-promoting activity” value in the assay on rat tibia (182, 189 HGH-(141-191)]) is “only a very small fraction of the comparative biological activities of the native human growth hormone”; with rat tibia (listed as the 51 residue fragment), “about nil”.

In the case of Cys(Cam)^165, 182, 189, -HCS-141-191, in the assay on antisera to HCS, the precipitin reaction entry is recorded as “failed to give a precipitin reaction”. The molecule further showed a Dry mucosal weight in the assay with pigeon crop-sac (total dose 120 (mg)) of 6.5 ± 1.4 mg. In addition, the complement fixed entry in the assay on rabbit antisera to HCS was “less than 10%”.

“[Cys(Cam)HCS-(1-133)] + [Recombinant II, [Cys(Cam)HCS-(1-133)] + [Cys(Cam)^165,182,189 -HGH-(141-191)]]”: in assay [1], the “antigen concentration needed to give the same degree of inhibition, relative to HGH” value was “at least 30 times”. In addition, the “radioimmunoassay inhibition / cross-reaction compared with HGH, in words” value in assay [1] is “much less effective than HGH”. The “Response (tibia width)” value is recorded as 218.5 ± 9.8 micrometers in the assay on rat tibia (Table 5, total dose 30 μg) and 229.0 ± 4.1 micrometers in the assay with rat tibia (Table 5, total dose 90 μg). For the same molecule, the “Relative potency to HGH” value with rat tibia (rat tibia assay) was found to be 10%. In addition, the “growth-promoting activity” value is listed as “less active in comparison with that of I” in the assay with rat tibia; “measurable growth promoting activity but at a reduced level of potency than the aforesaid recombinants” with rat tibia (listed as recombinant of Cys(Cam)^53 -HCS-(1-133) and Cys(Cam)^165, 182, 189 -HGH-(141-191)).

Regarding “[Cys(Cam)^53 -HGH(1-134)] + [Recombinant I, [Cys(Cam)^53 -HGH(1-134)] + [Cys(Cam^165,182,189 -HCS-(141-191)]]”, the “radioimmunoassay inhibition / cross-reaction compared with HGH, in words” value in assay [1] was “at low concentrations gave nearly identical inhibition to that of HGH”; in assay [1] (listed as recombinant of Cys (Cam)^53 -HGH-(1-134) and Cys (Cam)^165, 182, 189 -HCS-(141-1)), “nearly full immunoreactivity against the antiserum to HGH”. For the same molecule, the “Response (tibia width)” value is 212.0 ± 4.7 micrometers with rat tibia (Table 5, total dose 20 μg) and 259.2 ± 2.9 micrometers with rat tibia (Table 5, total dose 60 μg). Also, in the assay with rat tibia (rat tibia assay, Table 5), the “Relative potency to Cys(Cam)^53 HGH-(1-134)” value was 491%. Further, the “Relative potency to HGH” value in the assay with rat tibia (rat tibia assay) was 50%. Moreover, in the assay with rat tibia, the “growth-promoting activity” value is recorded as “significant growth-promoting activity”.

As for “[Cys(Cam)^53 ]-HGH(1-134) + [Nle^170, Ala^165, 182, 189 ]-HGH(145-191) [Recombinant IV]”, the “Response (tibia width)” value in the assay with rat tibia (Table 8, total dose 20 μg) is given as 248.5 ± 7.7 micrometers; in the assay with rat tibia (Table 8, total dose 60 μg) it was 297.2 ± 10.0 micrometers. The “Relative potency to HGH” value with rat tibia (rat tibia assay) is 113%.

Regarding “[Cys(Cam)^ 53 ]-HGH(1-134) + [Nle^170, Ala^165, 182, 189 ]-HGH(140-191) [Recombinant III]”, the “Response (tibia width)” value with rat tibia (Table 8, total dose 20 μg) worked out at 249.2 ± 9.2 micrometers; in the assay with rat tibia (Table 8, total dose 60 μg), 286.0 ± 2.1 micrometers. In addition, in the assay with rat tibia (rat tibia assay), the “Relative potency to HGH” value is 100%.

As to “[Lys^135,136,138, Glu^137,139, Nle^170,Ala^165,182,189 ]-HGH-(135-191)”, the “Response (rat tibia test)” value in the assay with rat tibia was found to be 192 ± 3.5 microns.

“[Nle^170, Ala^165,182,189 ]-HGH-(140-191)”: the “Response (rat tibia test)” value in the assay with rat tibia was 197 ± 4.2 microns.

For the molecule “[Nle^170, Ala^165,182,189 ]-HGH-(145-191)”, the “Response (rat tibia test)” value with rat tibia worked out at 189.5 ± 7.5 microns.

Turning to human growth hormone [HGH], the “Response (tibia width)” value with rat tibia (Table 5, total dose 20 μg) amounted to 242.8 ± 3.8 micrometers; in the assay on rat tibia (Table 5, total dose 60 μg) it was 282.8 ± 1.5 micrometers; in the assay on rat tibia (Table 8, total dose 20 μg), 245.0 ± 9.5 micrometers; in the assay with rat tibia (Table 8, total dose 60 μg), 290.2 ± 2.9 micrometers.

B1: human chorionic somatomammotropin (protein, UniProt P0DML2 27-217, looked up)
Chorionic somatomammotropin …: VQTVPLSRLFDHAMLQAHRAHQLAIDTYQEFEETYIPKDQKYSFLHDSQTSFCFSDSIPTPSNMEETQQKSNLELLRISLLLIESWLEPVRFLRSMFANNLVYDTSDSDDYHLLKDLEEGIQTLMGRLEDGSRRTGQILKQTYSKFDTNSHNHDALLKNYGLLYCFRKDMDKVETFLRMVQCRSVEGSCGF
notes: native human choriomammotropin hormone
Take B1: the precipitin reaction entry with antisera to HCS is recorded as “single sharp precipitin line”. For the same molecule, the Dry mucosal weight amounted to 24.2 ± 2.9 mg in the assay on pigeon crop-sac (total dose 4 (mg)) and 30.5 ± 3.7 mg in the assay on pigeon crop-sac (total dose 12 (mg)). Besides, the complement fixed entry with rabbit antisera to HCS is recorded as “about 90%”.
